Measured values as given in patent US9499538B2, “Estrogen receptor modulators and uses thereof” (Seragon Pharmaceuticals, Inc., priority 2012, dated 2016).

Assays:
ER-α in MCF-7 cells = target: T1, ER-α in MCF-7 cells (Homo sapiens, UniProt P03372); test: Breast Cancer Cell ER-α In Cell Western Assay (SP1); type: cell-based; conditions: 4 or 24 hr post compound addition; for Emax: MCF7, SP1 antibody, read-out: ER-α In Cell Western Assay (SP1) Max Response; for DC50: SP1 antibody, read-out: ER-α In Cell Western Assay (SP1) IC50
T1 construct: endogenous in cells; host or cells: MCF-7
T1 sequence (P03372 1-595): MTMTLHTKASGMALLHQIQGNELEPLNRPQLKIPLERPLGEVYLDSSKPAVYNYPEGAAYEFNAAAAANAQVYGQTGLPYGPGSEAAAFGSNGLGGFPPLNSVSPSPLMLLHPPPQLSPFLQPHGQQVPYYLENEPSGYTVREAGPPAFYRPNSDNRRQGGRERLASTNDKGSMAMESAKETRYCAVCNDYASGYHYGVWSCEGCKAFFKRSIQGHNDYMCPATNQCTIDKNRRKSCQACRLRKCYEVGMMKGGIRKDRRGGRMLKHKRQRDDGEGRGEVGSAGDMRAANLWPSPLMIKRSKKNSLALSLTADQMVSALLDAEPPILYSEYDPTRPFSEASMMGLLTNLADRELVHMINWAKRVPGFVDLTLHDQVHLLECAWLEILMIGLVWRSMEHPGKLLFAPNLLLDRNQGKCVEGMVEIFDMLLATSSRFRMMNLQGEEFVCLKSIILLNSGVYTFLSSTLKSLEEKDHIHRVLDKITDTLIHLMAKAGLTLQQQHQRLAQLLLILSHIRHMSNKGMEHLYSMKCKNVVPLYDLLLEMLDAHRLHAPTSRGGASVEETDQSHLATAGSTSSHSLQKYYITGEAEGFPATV
Method in brief: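 MCF-7 cells in charcoal-stripped FBS medium, treated with 11-point semilog dilutions (0.3–0.000003 μM final) for 4 or 24 h. Fixed cells immunostained with SP1 antibody (800 nm) and DRAQ5 DNA (700 nm); ER/DNA ratio expressed as % of untreated cells.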

MCF-7 cells = test: Breast Cancer Cell Viability Assays (MCF-7, CellTiter-Glo); type: cell-based; conditions: 5 days' compound exposure; for IC50: Homo sapiens, MCF7, 120 h
Method in brief: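 MCF-7 cells (320/well, RPMI with 10% FBS) exposed for 5 days to an eleven-point semilog series, 0.3–0.000003 μM final. Viability read by CellTiter-Glo luminescence, expressed as background-corrected percent of untreated cells.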

SMILES	Emax (ER-α in MCF-7 cells)	DC50 (ER-α in MCF-7 cells)	MCF7 Viability Assay Max Response (MCF-7 cells)	IC50 (MCF-7 cells)
O=C(O)/C=C/c1ccc(/C(=C(\c2ncc(Cl)cc2Cl)C2CCC2)c2ccc3[nH]nc(F)c3c2)cc1 [Example 146, (E)-3-(4-((E)-2-Cyclobutyl-2-(3,5-dichloropyridin-2-yl)-1-(3-fluoro-1H-indazol-5-yl)vinyl)phenyl)acrylic acid]	≥ 40%	≤ 100 nM	++ (++ = a single % value ≧ 40%)	≤ 100 nM
CCOc1cc(C)c(/C(=C(\c2ccc(/C=C/C(=O)O)cc2)c2ccc3[nH]nc(F)c3c2)C2CCC2)cn1 [Example 110, (E)-3-(4-((E)-2-Cyclobutyl-2-(6-ethoxy-4-methylpyridin-3-yl)-1-(3-fluoro-1H-indazol-5-yl)vinyl)phenyl)acrylic acid]	≥ 40%	≤ 100 nM	++ (++ = a single % value ≧ 40%)	≤ 100 nM
Cc1sccc1/C(=C(\c1ccc(/C=C/C(=O)O)cc1)c1ccc2scnc2c1)C1CCC1 [Example 86, (E)-3-(4-((E)-1-(Benzo[d]thiazol-5-yl)-2-cyclobutyl-2-(2-methylthiophen-3-yl)vinyl)phenyl)acrylic acid]	≥ 40%	≤ 100 nM	++ (++ = a single % value ≧ 40%)	≤ 100 nM
CC(C)/C(=C(/c1ccc(/C=C/C(=O)O)cc1)c1ccc2[nH]ncc2c1)c1ccccc1Cl [Example 35, (E)-3-(4-((E)-2-(2-Chlorophenyl)-1-(1H-indazol-5-yl)-3-methylbut-1-en-1-yl)phenyl)acrylic acid]	≥ 40%	≤ 100 nM	++ (++ = a single % value ≧ 40%)	≤ 100 nM
Cc1ccccc1/C(=C(\c1ccc(/C=C/C(=O)O)cc1)c1ccc2[nH]nc(F)c2c1)C1CC1 [Example 29, (E)-3-(4-((E)-2-Cyclopropyl-1-(3-fluoro-1H-indazol-5-yl)-2-(o-tolyl)vinyl)phenyl)acrylic acid]	≥ 40%	≤ 100 nM	++ (++ = a single % value ≧ 40%)	≤ 100 nM
CC/C(=C(/c1ccc(/C=C/c2nnn[nH]2)cc1)c1ccc2[nH]nc(F)c2c1)c1ccncc1Cl [Example 171, 5-((E)-1-(4-((E)-2-(2H-Tetrazol-5-yl)vinyl)phenyl)-2-(3-chloropyridin-4-yl)but-1-en-1-yl)-3-fluoro-1H-indazole]	≥ 40%	≤ 100 nM	++ (++ = a single % value ≧ 40%)	≤ 100 nM
COc1ccc(/C(=C(\c2ccc(/C=C/C(=O)O)cc2)c2ccc3[nH]nc(F)c3c2)C2CCC2)c(C)n1 [Example 69, (E)-3-(4-((E)-2-Cyclobutyl-1-(3-fluoro-1H-indazol-5-yl)-2-(6-methoxy-2-methylpyridin-3-yl)vinyl)phenyl)acrylic acid]	≥ 40%	≤ 100 nM	++ (++ = a single % value ≧ 40%)	≤ 100 nM
Cc1cc(/C(=C(\c2ccccc2)C2CCC2)c2ccc3[nH]nc(F)c3c2)cnc1/C=C/C(=O)O [Example 135, (E)-3-(5-((Z)-2-Cyclobutyl-1-(3-fluoro-1H-indazol-5-yl)-2-phenylvinyl)-3-methylpyridin-2-yl)acrylic acid]	≥ 40%	≤ 100 nM	++ (++ = a single % value ≧ 40%)	> 100 nM
CCOc1ccc(/C(=C(\c2ccc(/C=C/C(=O)O)cc2)c2ccc3[nH]nc(F)c3c2)C2CCC2)c(Cl)c1 [Example 230, (E)-3-(4-((E)-2-(2-Chloro-4-ethoxyphenyl)-2-cyclobutyl-1-(3-fluoro-1H-indazol-5-yl)vinyl)phenyl)acrylic acid]	≥ 40%	≤ 100 nM	++ (++ = a single % value ≧ 40%)	≤ 100 nM
Cc1cscc1/C(=C(\c1ccc(/C=C/C(=O)NCCO)cc1)c1ccc2[nH]nc(F)c2c1)C1CCC1 [Example 181, (E)-3-(4-((E)-2-Cyclobutyl-1-(3-fluoro-1H-indazol-5-yl)-2-(4-methylthiophen-3-yl)vinyl)phenyl)-N-(2-hydroxyethyl)acrylamide]	≥ 40%	≤ 100 nM	++ (++ = a single % value ≧ 40%)	≤ 100 nM
O=C(O)/C=C/c1ccc(/C(=C(\c2ccc(Cl)cc2Cl)C2CCC2)c2ccc3[nH]nc(F)c3c2)cn1 [Example 268, (E)-3-(5-((Z)-2-Cyclobutyl-2-(2,4-dichlorophenyl)-1-(3-fluoro-1H-indazol-5-yl)vinyl)pyridin-2-yl)acrylic acid]	≥ 40%	≤ 100 nM	++ (++ = a single % value ≧ 40%)	≤ 100 nM
O=C(/C=C/c1ccc(/C(=C(\c2ccccc2)C2CCC2)c2ccc3[nH]nc(F)c3c2)cc1)NCCCl [Example 191, (E)-N-(2-Chloroethyl)-3-(4-((E)-2-cyclobutyl-1-(3-fluoro-1H-indazol-5-yl)-2-phenylvinyl)phenyl)acrylamide]	≥ 40%	≤ 100 nM	++ (++ = a single % value ≧ 40%)	≤ 100 nM
O=C(O)/C=C/c1ccc(/C(=C(\c2ccc(OC(F)(F)F)cc2Cl)C2CCC2)c2ccc3scnc3c2)cc1 [Example 241, (E)-3-(4-((E)-1-(Benzo[d]thiazol-5-yl)-2-(2-chloro-4-(trifluoromethoxy)phenyl)-2-cyclobutylvinyl)phenyl)acrylic acid]	≥ 40%	≤ 100 nM	++ (++ = a single % value ≧ 40%)	≤ 100 nM
CC/C(=C(/c1ccc(/C=C/C(=O)O)cc1)c1ccc2[nH]nc(F)c2c1)c1ccc(C(F)(F)F)cc1C#N [Example 103]	≥ 40%	≤ 100 nM	++ (++ = a single % value ≧ 40%)	≤ 100 nM
O=C(O)/C=C/c1ccc(/C(=C(\c2ccncc2Cl)C2CCC2)c2coc3c(O)cccc23)cc1 [Example 213, (E)-3-(4-((E)-2-(3-Chloropyridin-4-yl)-2-cyclobutyl-1-(7-hydroxybenzofuran-3-yl)vinyl)phenyl)acrylic acid]	≥ 40%	≤ 100 nM	++ (++ = a single % value ≧ 40%)	≤ 100 nM
Cc1ccccc1/C(=C(\c1ccc(/C=C/C(=O)O)cc1)c1ccc2scnc2c1)C1CCC1 [Example 238, (E)-3-(4-((E)-1-(Benzo[d]thiazol-5-yl)-2-cyclobutyl-2-(o-tolyl)vinyl)phenyl)acrylic acid]	≥ 40%	≤ 100 nM	++ (++ = a single % value ≧ 40%)	≤ 100 nM
O=C(O)/C=C/c1ccc(/C(=C(\c2ccccn2)C2CCC2)c2ccc3[nH]nc(F)c3c2)cc1 [Example 141, (E)-3-(4-((E)-2-Cyclobutyl-1-(3-fluoro-1H-indazol-5-yl)-2-(pyridin-2-yl)vinyl)phenyl)acrylic acid]	≥ 40%	≤ 100 nM	++ (++ = a single % value ≧ 40%)	≤ 100 nM
O=C(O)/C=C/c1ccc(/C(=C(\c2ccncc2C(F)(F)F)C2CCC2)c2ccc3[nH]nc(F)c3c2)cc1 [Example 47, (E)-3-(4-((E)-2-Cyclobutyl-1-(3-fluoro-1H-indazol-5-yl)-2-(3-(trifluoromethyl)pyridin-4-yl)vinyl)phenyl)acrylic acid]	≥ 40%	≤ 100 nM	++ (++ = a single % value ≧ 40%)	≤ 100 nM
O=C(O)/C=C/c1ccc(/C(=C(\c2ncc(Cl)cc2C(F)(F)F)C2CCC2)c2ccc3[nH]nc(F)c3c2)cc1 [Example 257, (E)-3-(4-((E)-2-(5-Chloro-3-(trifluoromethyl)pyridin-2-yl)-2-cyclobutyl-1-(3-fluoro-1H-indazol-5-yl)vinyl)phenyl)acrylic acid]	≥ 40%	≤ 100 nM	++ (++ = a single % value ≧ 40%)	≤ 100 nM
Cc1cc(CO)ccc1/C(=C(\c1ccc(/C=C/C(=O)O)cc1)c1ccc2scnc2c1)C1CCC1 [Example 237, (E)-3-(4-((E)-1-(Benzo[d]thiazol-5-yl)-2-cyclobutyl-2-(4-(hydroxymethyl)-2-methylphenyl)vinyl)phenyl)acrylic acid]	≥ 40%	≤ 100 nM	++ (++ = a single % value ≧ 40%)	≤ 100 nM
O=C(O)/C=C/c1ccc(/C(=C(\c2ccccc2)C2CCC2)c2ccc3c(c2)CNC3=O)cc1 [Example 4, (E)-3-(4-((E)-2-Cyclobutyl-1-(1-oxoisoindolin-5-yl)-2-phenylvinyl)phenyl)acrylic acid]	≥ 40%	≤ 100 nM	++ (++ = a single % value ≧ 40%)	≤ 100 nM
